According to patent US9210928B2, “Plant development control composition” (Syngenta Crop Protection, LLC, priority 2008, dated 2015):
“Also recorded” adds a separate entry of the source.

Tests used:
[1] = test system: whole Arabidopsis plants; test: Shoot branching in whole Arabidopsis plants grown in agar; format: in vivo; conditions: for unintended effects on whole Arabidopsis plants: applied to whole plants; for branching phenotype of whole plants (in words): plants grown under sterile conditions in agar
Experimental: Branching phenotypes of Arabidopsis plants grown in agar media for 45 days supplemented with inhibitor D6. Images are shown: (a) Col-0 (WT) without inhibitor; (b) max3-9 mutant without inhibitor; (c) Col-0 with 100 μM D6. The numbers (d) of rosette branches were quantified. Error bars represent standard error of the mean, n=6 to 12.
Stimulation of shoot branching in whole Arabidopsis plants—Inhibitors were also applied to Arabidopsis whole plants grown under sterile conditions in agar. […] Inhibitor treated plants were intermediate (mean of approximately 2 branches) and so partially mimicked max3-9 (FIG. 6d).

[2] = target: LeCCD1a (Solanum lycopersicum, UniProt Q6E4P5); test: In vitro LeCCD1a enzyme assay (recombinant cell-free extract, colourimetric, apo-8′-carotenal substrate); format: biochemical, tomato (Solanum lycopersicum); conditions: for IC50 / LeCCD1a (9,10/9′,10′) Inhibition @ 100 μM (%): E. coli cell extract with recombinant CCD; for IC50: read-out: LeCCD1a (9,10/9′,10′) IC50; for inhibition at 100 µM: read-out: LeCCD1a (9,10/9′,10′) Inhibition @ 100 μM (%); for LeCCD1a (9,10/9′,10′) Inhibition @ 100 μM (%): 100 μM inhibitor
Chain of LeCCD1a (Solanum lycopersicum, UniProt Q6E4P5) (Q6E4P5 1-545): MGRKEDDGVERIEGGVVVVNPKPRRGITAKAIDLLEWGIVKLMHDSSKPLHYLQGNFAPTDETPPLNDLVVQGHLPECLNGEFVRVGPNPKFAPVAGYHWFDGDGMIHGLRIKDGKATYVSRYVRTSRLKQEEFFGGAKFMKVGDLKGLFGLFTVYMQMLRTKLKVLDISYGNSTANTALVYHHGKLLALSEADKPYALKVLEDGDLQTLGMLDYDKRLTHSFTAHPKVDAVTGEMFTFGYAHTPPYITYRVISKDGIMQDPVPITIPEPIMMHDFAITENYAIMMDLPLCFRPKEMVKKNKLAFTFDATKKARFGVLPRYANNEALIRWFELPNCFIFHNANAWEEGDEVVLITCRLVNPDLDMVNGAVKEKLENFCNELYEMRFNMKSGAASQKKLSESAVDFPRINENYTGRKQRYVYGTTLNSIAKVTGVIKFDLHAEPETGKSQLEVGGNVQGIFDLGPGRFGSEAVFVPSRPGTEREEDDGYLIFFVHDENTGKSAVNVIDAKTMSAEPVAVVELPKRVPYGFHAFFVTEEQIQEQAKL
Experimental: In vitro LeCCD1a enzyme assay—We over-expressed LeCCD1a in E. coli, as a GST-fusion protein (supplemental methods). The in vitro assay of LeCCD1a was based on reported methods (37), and was carried out in a 200 μl total volume in a 96-well microtitre plate, with the signal detected at 485 nm. To prepare substrate solution for each assay, 5 μl of 4% (w/v in ethanol) apo-8′-carotenal (Sigma) was mixed with 25 μl of 4% (w/v in ethanol) β-octylglucoside (Sigma), the ethanol was then evaporated under nitrogen, and the residue dissolved in 150 μl PBS buffer containing 10 mM sodium ascorbate by incubation at 20° C. for 30 min. 50 μl of cell-free extract containing recombinant LeCCD1a was added, and the reactions monitored over 30 min at 20° C.
(§1) For the production of cell-free extracts of LeCCD1a and LeNCED1, cultures were grown to an OD of 0.6 at 37° C., then isopropyl β-D-1-thiogalactopyranoside (IPTG) was added to 0.2 mM and the cultures grown overnight at 20° C. The cells (200 ml cultures) were harvested by centrifugation (5000 rpm, 10 min) and the pellet re-suspended in 4 ml PBS, 0.1% Triton-X 100. Lysozyme was added to a final concentration of 25 μg ml^−1 and the solution incubated at room temperature for 15 min before sonication (3×30 s at 18Ω) on ice. The lysate was then centrifuged (13000 rpm, 15 min, 4° C.) and the supernatant used for the assay.
(§2) Specificity of inhibition in vitro for tomato genes LeNCED1 and LeCCD1a—In order to screen the inhibitors against enzymes which cleave carotenoids at the 9,10 position, we used the recombinant tomato LeCCD1a protein (44), because this type of enzyme can be studied using an in vitro colourimetric assay with β-apo-8′-carotenal as substrate (37). To establish the specificity of the inhibitors, they were also tested against the tomato LeNCED1 recombinant protein which cleaves 9-cis carotenoids at the 11,12 position (45). For this enzyme, the cleavage reaction was monitored by C18 reverse phase HPLC, using 9′-cis-neoxanthin as substrate.

[3] = target: T1, LeNCED1 (Solanum lycopersicum, UniProt O24023); test: In vitro NCED enzyme assay (recombinant LeNCED1 cell-free extract, HPLC, 9′-cis-neoxanthin substrate); format: biochemical, tomato; conditions: for LeNCED1 (11,12) Inhibition @ 100 μM (%): 100 μM inhibitor, E. coli cell extract with recombinant CCD
T1 construct: made in house; host or cells: E. coli Rosetta (DE3); crude cell-free extract
T1 sequence (O24023 17-605): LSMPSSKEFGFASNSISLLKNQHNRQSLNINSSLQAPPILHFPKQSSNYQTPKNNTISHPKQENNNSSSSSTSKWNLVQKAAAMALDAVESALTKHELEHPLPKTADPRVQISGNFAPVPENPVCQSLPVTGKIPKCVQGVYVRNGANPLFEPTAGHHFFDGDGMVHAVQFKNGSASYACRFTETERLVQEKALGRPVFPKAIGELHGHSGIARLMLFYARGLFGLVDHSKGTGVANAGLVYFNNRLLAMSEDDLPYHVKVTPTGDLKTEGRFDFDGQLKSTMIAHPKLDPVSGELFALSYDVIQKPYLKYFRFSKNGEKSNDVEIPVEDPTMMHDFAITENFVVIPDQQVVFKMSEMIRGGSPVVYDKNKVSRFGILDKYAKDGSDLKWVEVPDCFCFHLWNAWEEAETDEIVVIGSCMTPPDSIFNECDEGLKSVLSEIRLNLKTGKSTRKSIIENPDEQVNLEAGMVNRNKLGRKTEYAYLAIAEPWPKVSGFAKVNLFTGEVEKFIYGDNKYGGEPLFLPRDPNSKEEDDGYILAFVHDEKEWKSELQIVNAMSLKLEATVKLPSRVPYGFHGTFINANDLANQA
Experimental: In vitro NCED enzyme assay—We over-expressed LeNCED1 in E. coli, as an N-terminal His6-fusion protein (supplemental methods). Cell-free extract containing recombinant LeNCED1 was prepared in 100 mM bis-tris buffer (pH 6.7). 15 μl extract was pre-activated by addition of iron(II) sulphate (20 mM, 1 μl) and ascorbic acid (20 mM, 1 μl) on ice for 2 min, prior to use. This aliquot of enzyme was then added to an assay (150 μl total volume) containing 100 mM bis-tris buffer (pH 6.7), 0.05% v/v Triton X-100, 1.0 mg/ml catalase, and 3 μg 9′-cis-neoxanthin. The 9′-cis-neoxanthin substrate was prepared as described in supplemental methods. The enzyme assay was incubated for 15 min in the dark at 20° C. Water (700 μl) was then added, and the products extracted with ethyl acetate (3×1 ml). The organic solvent was removed at reduced pressure, the residue was dissolved in methanol (200 μl), and then 100 μl was injected onto a Phenomenex C18 reverse phase HPLC column, and a gradient of 5-10% methanol in acetonitrile/0.05% triethylamine was applied at 0.5 ml/min over 20 min, detecting at 440 nm. NCED inhibition assays contained 1-100 μM inhibitor; inhibition was calculated from the product formation after 15 min, compared to a control assay with no inhibitor present.
as §1, §2

[4] = test system: LeCCD1a; test: In vivo enzyme assay in β-carotene-producing E. coli expressing LeCCD1a; format: cell-based, Solanum lycopersicum; conditions: 100 μM inhibitor, 16 hours; FIG. 4
Description: In vivo enzyme assays in E. coli—The genes of interest (supplemental Table S1) were cloned into the vector pET30c (Novagen) fused directly to the initial ATG codon with no tag, or into pGEX-4T such that the gene was fused to an N-terminal GST tag. All genes were full length except AtCCD7, which had the chloroplast signal sequence removed (supplemental methods). […] Therefore, this construct was used in subsequent assays. The plasmids were transferred to the E. coli expression strain BL21(DE3), harbouring pAC-BETA (38), and therefore producing β-carotene.
For each inhibitor assay, 2.5 ml LB media with the appropriate antibiotics (25 μg ml^−1 chloramphenicol and 50 μg ml^−1 kanamycin or 100 μg ml^−1 ampicillin) and 2.5 μM IPTG, was prepared. Inhibitors (0.1 M in 100% ethanol) were added to the media to a final concentration of 100 μM. The media was then inoculated with 0.25 ml of overnight culture (grown at 37° C. with the appropriate antibiotics) and incubated with shaking (200 rpm) at 28° C. for 16 hours. One ml of culture was harvested by microcentrifugation and resuspended thoroughly in 1 ml ethanol containing 0.2% Triton X-100. After vortexing, the extract was incubated at room temperature in the dark for 3 hours, again vortexed and then spun in a microcentrifuge for 5 min at 13000 rpm. The supernatant was removed and the O.D.453-O.D.550 was measured. The amount of β-carotene was calculated using a standard curve generated from a dilution series of β-carotene (Sigma) in ethanol with 0.2% Triton X-100; the absolute levels of β-carotene are shown in FIG. 8. The relative inhibition was calculated by the equation: (Ci−Cc)/(C1−Cc)×100, where Ci is the carotenoid level with inhibitor and CCD present, Cc is the level with CCD but without the inhibitor and C1 is the level in a strain where lacZ is expressed instead of the CCD, and no inhibitor is present. Thus the increase in β-carotene due to inhibition of the CCD […] was expressed relative to the maximum possible β-carotene content when CCD is absent (C1−Cc).
In vivo activity of inhibitors applied to E. coli strains expressing CCDs—Coloured E. coli strains that produce various carotenoids can be constructed by expression of enzymes for carotenoid synthesis (26). Upon co-expression of the appropriate CCD, the bacteria lose their colour due to cleavage of the carotenoids to colourless products (4,6,27). This technique was employed here to further explore the specificity of inhibitors, and to test their activity in vivo. The level of carotenoid in each CCD-expressing strain was compared to the level of the carotenoid in a control strain producing β-carotene but lacking any CCD gene. The difference in the carotenoid levels gave a measure of CCD activity, and inhibition of this activity was measured by addition of inhibitors to the growing medium.
The inhibitors were tested against four β-carotene-producing E. coli strains (supplemental Table S1). Three of the strains expressed highly divergent CCDs that cleave at the 9,10 position: AtCCD7 from Arabidopsis (21) and MmBCO2 from mouse (6) which both cleave at a single site (9,10 or 9′,10′ but not both), and the tomato enzyme LeCCD1a (44) which cleaves at both sites in the same substrate molecule (9,10/9′,10′ activity). The fourth strain expressed another mouse CCD, MmBCO1 (47), which cleaves centrally at 15,15′. […]

Row | Structure (SMILES) | unintended effects on whole Arabidopsis plants [1] | inhibition at 100 µM [2] | LeNCED1 (11,12) Inhibition @ 100 μM (%) [3] | LeCCD1a (9,10/9′,10′) Inhibition @ 100 μM (%) [2] | also measured
1 | O=C(Cc1ccc(O)cc1)N(O)Cc1ccc(F)cc1 [Compound D2, N-(4-fluorobenzyl)-4-hydroxyphenylacetyl hydroxamic acid] | without negative unintended effects on whole plants | > 95% |  |  | branching phenotype of whole plants (in words) [1]: bushy appearance; IC50 [2]: 800 to 900 nM
2 | O=C(Cc1ccc(O)c(O)c1)N(O)Cc1ccc(F)cc1 [Compound D3, N-(4-fluorobenzyl)-3,4-dihydroxyphenylacetyl hydroxamic acid] | negative effects on growth | > 95% |  |  | inhibition of LeNCED1 in vitro (in words) [3]: little or no inhibition of LeNCED1; inhibition of LeCCD1 in vitro (in words) [2]: high levels of inhibition of LeCCD1; also recorded: good inhibitors of the 9,10 enzymes in vitro; IC50 [2]: 800 to 900 nM
3 | COc1ccc(CC(=O)N(O)Cc2ccccc2)cc1OC [Compound D5, N-benzyl-3,4-dimethoxyphenylacetyl hydroxamic acid] | without negative unintended effects on whole plants | > 95% |  |  | relative inhibition of LeCCD1a in E. coli (in words) [4]: relatively weaker inhibition activity; branching phenotype of whole plants (in words) [1]: bushy appearance; also recorded: largest effect on whole Arabidopsis plants, giving the greatest number of side branches
4 | COc1ccc(CC(=O)N(O)Cc2ccc(F)cc2)cc1OC [Compound D6, N-(4-fluorobenzyl)-3,4-dimethoxyphenylacetyl hydroxamic acid] | without negative unintended effects on whole plants | > 95% |  |  | relative inhibition of LeCCD1a in E. coli (in words) [4]: relatively weaker inhibition activity; branching phenotype of whole plants (in words) [1]: bushy appearance; also recorded: largest effect on whole Arabidopsis plants, giving the greatest number of side branches
5 | COc1ccc(CCC(=O)N(O)Cc2ccccc2)cc1OC [Compound D8, N-benzyl-3,4-dimethoxyphenylpropionyl hydroxamic acid] |  |  | 40% | 61% | inhibition of LeNCED1 in vitro (in words) [3]: greatest inhibition of NCED in vitro; also recorded: best 11,12 inhibitor
6 | COc1ccc(CCC(=O)N(O)Cc2ccccc2)cc1 [Compound D9, N-benzyl-4-methoxyphenylpropionyl hydroxamic acid] |  | > 95% |  |  | 
7 | CCCCCCCCN(O)C(=O)CCc1ccc(OC)c(OC)c1 [Compound D10, N-octyl-3,4-dimethoxyphenylpropionyl hydroxamic acid] |  |  | 14% | 65% | 
8 | CCCCCCCCN(O)C(=O)CCc1ccc(OC)cc1 [Compound D11, N-octyl-4-methoxyphenylpropionyl hydroxamic acid] |  |  | 15% | 53% | 
9 | COc1ccc(C=CC(=O)NO)cc1OC [Compound D12, 3,4-Dimethoxyphenylpropenoyl hydroxamic acid] |  |  | 11% | 26% | 
10 | COc1ccc(C=CC(=O)NO)cc1 [Compound D13, 4-Methoxyphenylpropenoyl hydroxamic acid] |  |  | 13% | 46% | 
11 | COc1ccc(C(=O)N(O)Cc2ccc(F)cc2)cc1OC [Compound F4, N-(4-fluorobenzyl)-3,4-dimethoxybenzoyl hydroxamic acid] |  |  | 0% | 0% | 
